In patent US20220339144A1, “PYRIDINYL INDOLE COMPOUNDS AND METHODS OF USE THEREOF” (Chinook Therapeutics Canada, Inc., priority 2021, published 2022):

Legend:
AMPKα1β1γ1 = target: T1, AMPKα1β1γ1 (Homo sapiens, UniProt Q13131+Q9Y478); assay: AMPKα1β1γ1 biochemical assay (LabChip EZ Reader mobility shift); details: EC50 of Table 1; activation, normalized to DMSO vehicle control; read-out: Human AMPK AMPKα1β1γ1 EC50
T1 construct: purchased Carna Biosciences 02-113
Method: (§1) Compounds disclosed herein were evaluated for their ability to activate AMPKα1β1γ1 by measuring phosphorylation of a commercially available fluorescent AMPK substrate using the LabChip® EZ Reader microfluidic system that is based on a mobility shift principle in which unphosphorylated fluorescent substrates may be separated and distinguished from phosphorylated fluorescent substrates due to the difference in negative charge. Briefly, compounds were serial diluted 3-fold in 100% DMSO for an 11-point dose-response curve. A 20 nL aliquot of diluted compound was transferred into a 384-well plate using a liquid handler (Labcyte Inc., Echo 550). A pre-prepared solution (10 mM MgCl2, 0.01% Brij-35, 2 mM DTT, 0.05% BSA, 1 mM EGTA, and 50 mM HEPES pH 7.5) was combined with 0.83 nM AMPKα1β1γ1 (Carna Biosciences, 02-113). The enzyme solution (15 μL) was aliquoted into each well and the plate was incubated at 24° C. for 30 min. A second stock solution (10 mM MgCl2, 0.01% Brij-35, 2 mM DTT, 0.05% BSA, 1 mM EGTA, 800 μM ATP, and 50 mM HEPES pH 7.5) was combined with 6 μM fluorescent peptide substrate for AMPKal (Perkin Elmer, 760351). The kinase reaction was initiated by adding 5 μL of the second solution containing substrate and ATP to each well. The plate was incubated at 24° C. for 90 minutes and 75 μL of 0.5 M EDTA was added to terminate the reaction. The plates were analyzed using a LabChip® EZ Reader (Perkin Elmer, 122919) and the effective concentration to achieve 50% of the maximal activity (EC50) was calculated after normalizing to the DMSO vehicle control.

AMPKα1β2γ1 = target: T2, AMPKα1β2γ1 (Homo sapiens, UniProt O43741+Q13131); assay: AMPKα1β2γ1 biochemical assay (LabChip EZ Reader mobility shift); details: second EC50 column of Table 1 (head repeats α1β1γ1; text says α1β2γ1 isoform); read-out: Human AMPK AMPKα1β1γ1 EC50
T2 construct: purchased Carna Biosciences (printed only as 'Biosciences') 02-147
Method: as §1
The same procedure above was also used to measure activation of the AMPKα1β2γ1 isoform, replacing AMPKα1β1γ1 with AMPKα1β2γ1 Biosciences 02-147).

T2 sequence (Q13131 whole entry, canonical isoform): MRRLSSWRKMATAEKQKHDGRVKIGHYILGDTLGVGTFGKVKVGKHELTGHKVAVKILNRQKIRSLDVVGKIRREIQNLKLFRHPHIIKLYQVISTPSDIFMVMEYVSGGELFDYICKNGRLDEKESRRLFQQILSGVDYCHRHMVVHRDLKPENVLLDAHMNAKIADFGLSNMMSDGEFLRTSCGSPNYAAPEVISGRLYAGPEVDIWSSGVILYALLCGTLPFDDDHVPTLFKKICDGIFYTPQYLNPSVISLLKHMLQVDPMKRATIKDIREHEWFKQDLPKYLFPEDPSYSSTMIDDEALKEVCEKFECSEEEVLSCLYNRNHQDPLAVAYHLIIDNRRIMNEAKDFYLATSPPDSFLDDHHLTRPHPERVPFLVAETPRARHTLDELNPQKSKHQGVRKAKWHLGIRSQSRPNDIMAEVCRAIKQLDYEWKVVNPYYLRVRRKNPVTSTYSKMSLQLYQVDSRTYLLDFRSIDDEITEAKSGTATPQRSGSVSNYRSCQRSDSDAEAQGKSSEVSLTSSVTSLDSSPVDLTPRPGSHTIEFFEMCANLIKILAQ
T2 sequence (O43741 whole entry, canonical isoform): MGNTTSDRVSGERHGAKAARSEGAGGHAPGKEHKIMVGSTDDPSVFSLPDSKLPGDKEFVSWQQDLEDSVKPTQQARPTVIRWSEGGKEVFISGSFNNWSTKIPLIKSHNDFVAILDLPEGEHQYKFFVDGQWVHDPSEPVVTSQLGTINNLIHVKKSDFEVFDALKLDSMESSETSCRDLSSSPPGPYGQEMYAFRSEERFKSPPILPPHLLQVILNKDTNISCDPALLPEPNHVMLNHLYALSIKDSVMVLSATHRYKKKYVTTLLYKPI
T2 sequence (P54619 whole entry partner, canonical isoform): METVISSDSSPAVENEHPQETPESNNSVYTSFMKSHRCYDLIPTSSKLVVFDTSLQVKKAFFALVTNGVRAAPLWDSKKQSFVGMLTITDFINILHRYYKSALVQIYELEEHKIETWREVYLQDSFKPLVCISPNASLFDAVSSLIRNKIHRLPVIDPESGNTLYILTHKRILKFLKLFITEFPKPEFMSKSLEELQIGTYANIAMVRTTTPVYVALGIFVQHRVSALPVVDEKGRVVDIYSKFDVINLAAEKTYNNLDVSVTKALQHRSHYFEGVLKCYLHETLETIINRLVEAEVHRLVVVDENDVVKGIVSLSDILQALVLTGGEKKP
T1 sequence (Q13131 whole entry): as the sequence (Q13131 whole entry, canonical isoform) above
T1 sequence (Q9Y478 whole entry): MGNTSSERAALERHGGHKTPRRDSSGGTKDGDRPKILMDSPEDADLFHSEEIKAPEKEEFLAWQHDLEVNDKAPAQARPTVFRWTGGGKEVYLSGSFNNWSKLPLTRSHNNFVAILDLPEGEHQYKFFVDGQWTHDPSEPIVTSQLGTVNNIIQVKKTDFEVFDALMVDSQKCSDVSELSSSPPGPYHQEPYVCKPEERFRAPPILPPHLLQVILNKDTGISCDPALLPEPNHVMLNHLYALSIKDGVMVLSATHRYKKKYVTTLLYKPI
T1 sequence (P54619 whole entry partner): as the sequence (P54619 whole entry partner, canonical isoform) above

EC50 (AMPKα1β1γ1)	EC50 (AMPKα1β2γ1)	SMILES
0.1 to 0.25 µM	–	COc1nc(N2CC3CCC(C2)O3)ccc1-c1cc2c(C(=O)O)c[nH]c2cc1Cl (racemic) [Example 29, racemic-5-(6-(8-oxa-3-azabicyclo[3.2.1]octan-3-yl)-2-methoxypyridin-3-yl)-6-chloro-1H-indole-3-carboxylic acid]
0.05 to 0.1 µM	> 10 µM	COc1nc(N2CC3(CCC3O)C2)ccc1-c1cc2c(C(=O)O)c[nH]c2cc1Cl (racemic) [Example 25, racemic-6-chloro-5-(6-(5-hydroxy-2-azaspiro[3.3]heptan-2-yl)-2-methoxypyridin-3-yl)-1H-indole-3-carboxylic acid]
≤ 0.05 µM	0.25 to 10 µM	COc1nc(N2C[C@H]3COC[C@@H]3C2)ccc1-c1cc2c(C(=O)O)c[nH]c2cc1Cl [Example 34, 6-chloro-5-(2-methoxy-6-((3aS,6aS)-tetrahydro-1H-furo[3,4-c]pyrrol-5(3H)-yl)pyridin-3-yl)-1H-indole-3-carboxylic acid]
≤ 0.05 µM	> 10 µM	COc1nc(N2CC3(CCNC3=O)C2)ccc1-c1cc2c(C(=O)O)c[nH]c2cc1Cl [Example 18, 6-chloro-5-(2-methoxy-6-(5-oxo-2,6-diazaspiro[3.4]octan-2-yl)pyridin-3-yl)-1H-indole-3-carboxylic acid]
0.05 to 0.1 µM	–	COc1nc(N2CC3COC(C3)C2)ccc1-c1cc2c(C(=O)O)c[nH]c2cc1Cl (racemic) [Example 20, racemic-5-(6-(6-oxa-3-azabicyclo[3.2.1]octan-3-yl)-2-methoxypyridin-3-yl)-6-chloro-1H-indole-3-carboxylic acid]
0.05 to 0.1 µM	> 10 µM	COc1nc(N2CC3CC3(C#N)C2)ccc1-c1cc2c(C(=O)O)c[nH]c2cc1Cl (racemic) [Example 15, racemic-6-chloro-5-(6-(1-cyano-3-azabicyclo[3.1.0]hexan-3-yl)-2-methoxypyridin-3-yl)-1H-indole-3-carboxylic acid]
0.1 to 0.25 µM	–	COc1nc(N2CC3(COC3)C2)ccc1-c1cc2c(C(=O)O)c[nH]c2cc1F [Example 40, 6-fluoro-5-(2-methoxy-6-[2-oxa-6-azaspiro[3.3]hentan-6-yl]pyridin-3-yl)-1H-indole-3-carboxylic Acid]
≤ 0.05 µM	> 10 µM	COc1nc(N2CC3(CNC(=O)C3)C2)ccc1-c1cc2c(C(=O)O)c[nH]c2cc1Cl [Example 19, 6-chloro-5-(2-methoxy-6-(7-oxo-2,6-diazaspiro[3.4]octan-2-yl)pyridin-3-yl)-1H-indole-3-carboxylic acid]
0.05 to 0.1 µM	–	COc1nc(N2CCC3(CCO3)CC2)ccc1-c1cc2c(C(=O)O)c[nH]c2cc1Cl (racemic) [Example 31, racemic-6-chloro-5-(2-methoxy-6-(1-oxa-7-azaspiro [3.5]nonan-7-yl)pyridin-3-yl)-1H-indole-3-carboxylic acid]
≤ 0.05 µM	> 10 µM	COc1nc(N2CC3(COC3)C2)ccc1-c1c(F)cc2[nH]cc(C(=O)O)c2c1F [Example 41, 4,6-difluoro-5-(2-methoxy-6-(2-oxa-6-azaspiro[3.3]heptan-6-yl)pyridin-3-yl)-1H-indole-3-carboxylic acid]
0.05 to 0.1 µM	–	COc1nc(N2CC3(CNC3)C2)ccc1-c1cc2c(C(=O)O)c[nH]c2cc1Cl [Example 11, 6-chloro-5-(2-methoxy-6-(2,6-diazaspiro[3.3]heptan-2-yl)pyridin-3-yl)-1H-indole-3-carboxylic acid]
0.1 to 0.25 µM	–	COc1nc(N2CC3CC2CO3)ccc1-c1cc2c(C(=O)O)c[nH]c2cc1Cl (racemic) [Example 2, rac-5-(6-(2-oxa-5-azabicyclo[2.2.1]heptan-5-yl)-2-methoxypyridin-3-yl)-6-chloro-1H-indole-3-carboxylic acid]
≤ 0.05 µM	> 10 µM	COc1nc(N2CC3(CCOC3)C2)ccc1-c1cc2c(C(=O)O)c[nH]c2cc1Cl [Example 21, 6-chloro-5-(2-methoxy-6-(6-oxa-2-azaspiro[3.4]octan-2-yl)pyridin-3-yl)-1H-indole-3-carboxylic acid]
≤ 0.05 µM	–	COc1nc(N2C[C@@H]3COC[C@H]3C2)ccc1-c1cc2c(C(=O)O)c[nH]c2cc1Cl (racemic) [Example 32, racemic-6-chloro-5-(2-methoxy-6-((trans)tetrahydro-1H-furo[3,4-c]pyrrol-5(3H)-yl)pyridin-3-yl)-1H-indole-3-carboxylic acid]
0.05 to 0.1 µM	–	COc1nc(N2C[C@H]3C[C@H]3C2)ccc1-c1cc2c(C(=O)O)c[nH]c2cc1Cl [Example 14, 5-(6-(3-azabicyclo[3.1.0]hexan-3-yl)-2-methoxypyridin-3-yl)-6-chloro-1H-indole-3-carboxylic acid]
≤ 0.05 µM	> 10 µM	COc1nc(N2C[C@H]3CCO[C@H]3C2)ccc1-c1cc2c(C(=O)O)c[nH]c2cc1Cl (racemic) [Example 28, racemic-6-chloro-5-(6-((cis)-hexahydro-5H-furo[2,3-c]pyrrol-5-yl)-2-methoxypyridin-3-yl)-1H-indole-3-carboxylic acid]
0.05 to 0.1 µM	> 10 µM	COc1nc(N2CC3(CCC(=O)N3)C2)ccc1-c1cc2c(C(=O)O)c[nH]c2cc1Cl [Example 17, 6-chloro-5-(2-methoxy-6-(6-oxo-2,5-diazaspiro[3.4]octan-2-yl)pyridin-3-yl)-1H-indole-3-carboxylic acid]
≤ 0.05 µM	0.25 to 10 µM	COc1nc(N2C[C@@H]3[C@@H](CO)[C@@H]3C2)ccc1-c1cc2c(C(=O)O)c[nH]c2cc1Cl [Example 3, 6-chloro-5-(6-((trans)-6-(hydroxymethyl)-3-azabicyclo [3.1.0]hexan-3-yl)-2-methoxypyridin-3-yl)-1H-indole-3-carboxylic acid]
0.1 to 0.25 µM	–	COc1nc(N2CC3(CCOCC3)C2)ccc1-c1cc2c(C(=O)O)c[nH]c2cc1Cl [Example 36, 6-chloro-5-(2-methoxy-6-(7-oxa-2-azaspiro[3.5]nonan-2-yl)pyridin-3-yl)-1H-indole-3-carboxylic acid]
≤ 0.05 µM	> 10 µM	COc1nc(N2CC3CC3(O)C2)ccc1-c1cc2c(C(=O)O)c[nH]c2cc1Cl (racemic) [Example 26, racemic-6-chloro-5-(6-(1-hydroxy-3-azabicyclo[3.1.0]hexan-3-yl)-2-methoxypyridin-3-yl)-1H-indole-3-carboxylic acid]
≤ 0.05 µM	> 10 µM	COc1nc(N2CC3(COC3)C2)ccc1-c1cc2c(C(=O)O)c[nH]c2cc1Cl [Example 1, 6-chloro-5-(2-methoxy-6-(2-oxa-6-azaspiro[3.3]heptan-6-yl)pyridin-3-yl)-1H-indole-3-carboxylic Acid]
0.1 to 0.25 µM	–	COc1nc(N2CCC3(CCOCC3)C2)ccc1-c1cc2c(C(=O)O)c[nH]c2cc1Cl [Example 35, 6-chloro-5-(2-methoxy-6-[8-oxa-2-azaspiro[4.5]decan-2-yl]pyridin-3-yl)-1H-indole-3-carboxylic acid]
0.1 to 0.25 µM	–	COc1nc(N2CC3CCC2CO3)ccc1-c1cc2c(C(=O)O)c[nH]c2cc1Cl (racemic) [Example 30, racemic-5-(6-(2-oxa-5-azabicyclo[2.2.2]octan-5-yl)-2-methoxypyridin-3-yl)-6-chloro-1H-indole-3-carboxylic acid]
0.1 to 0.25 µM	–	COc1nc(N2CCC3(CCOC3)C2)ccc1-c1cc2c(C(=O)O)c[nH]c2cc1Cl (racemic) [Example 37, racemic-6-chloro-5-(2-methoxy-6-(2-oxa-7-azaspiro [4.4]nonan-7-yl)pyridin-3-yl)-1H-indole-3-carboxylic acid]
≤ 0.05 µM	–	COc1nc(N2CC3CC(C2)O3)ccc1-c1cc2c(C(=O)O)c[nH]c2cc1Cl [Example 39, 5-(6-(6-oxa-3-azabicyclo[3.1.1]heptan-3-yl)-2-methoxypyridin-3-yl)-6-chloro-1H-indole-3-carboxylic acid]
≤ 0.05 µM	–	COc1nc(N2CC3(CCS3(=O)=O)C2)ccc1-c1cc2c(C(=O)O)c[nH]c2cc1Cl [Example 16, 6-chloro-5-(6-(1,1-dioxido-1-thia-6-azaspiro[3.3]heptan-6-yl)-2-methoxypyridin-3-yl)-1H-indole-3-carboxylic acid]

SMILES	EC50 (AMPKα1β1γ1)	EC50 (AMPKα1β2γ1)
COc1nc(N2CC3(CC(NC(=O)OC(C)(C)C)C3)C2)ccc1-c1cc2c(C(=O)O)c[nH]c2cc1Cl [Example 7, 5-(6-(6-((tert-butoxycarbonyl)amino)-2-azaspiro[3.3]heptan-2-yl)-2-methoxypyridin-3-yl)-6-chloro-1H-indole-3-carboxylic acid]	≤ 0.05 µM	–
